Consider 6 substances from US7498300B2, “CRFR1 selective ligands” (The Salk Institute for Biological Studies, priority 2001, dated 2009).

Tested on in the first test: not listed separately
The test can be described thus: In vivo lowering of blood pressure on peripheral administration. As to conditions: administered peripherally.
Protocol: In vivo testing is carried out using the general procedure set forth in C.
For “(cyclo 31-34)[Ac-Pro^4, D-Phe^12, Nle^21,38, CML^27, Glu^31, Lys^34]-r/hCRF(4-41) [Example 5 C]”, the “lowering of blood pressure” value is reported as “very significant lowering of blood pressure”.

As to “(cyclo 31-34)[Ac-Pro^4, D-Phe^12, Nle^21,38, Glu^31, Aib^33, Lys^34]-r/hCRF(4-41) [Example 4]”, the “lowering of blood pressure” value is “very significant lowering of blood pressure”.

Regarding “(cyclo 31-34)[Ac-Pro^4, D-Phe^12, Nle^21,38, Glu^31, Lys^34, CML^37]-r/hCRF(4-41) [Example 5 D]”, the “lowering of blood pressure” value was “very significant lowering of blood pressure”.

With “(cyclo 31-34)[Ac-Pro^4, D-Phe^12, Nle^21,38, Glu^31, Lys^34]-oCRF(4-41) [Example 2]”, the “lowering of blood pressure” value was “very significant lowering of blood pressure”.

With “(cyclo 31-34)[Ac-Pro^4, D-Phe^12, Nle^21,38, Glu^31, Lys^34]-porcine CRF(4-41) [Example 3 C]”, the “lowering of blood pressure” value was “very significant lowering of blood pressure”.

For the next test, the target named is CRFR2 (Mus musculus, UniProt Q60748).
Chain of CRFR2 (Q60748 27-431 isoform Q60748-2 limits assumed): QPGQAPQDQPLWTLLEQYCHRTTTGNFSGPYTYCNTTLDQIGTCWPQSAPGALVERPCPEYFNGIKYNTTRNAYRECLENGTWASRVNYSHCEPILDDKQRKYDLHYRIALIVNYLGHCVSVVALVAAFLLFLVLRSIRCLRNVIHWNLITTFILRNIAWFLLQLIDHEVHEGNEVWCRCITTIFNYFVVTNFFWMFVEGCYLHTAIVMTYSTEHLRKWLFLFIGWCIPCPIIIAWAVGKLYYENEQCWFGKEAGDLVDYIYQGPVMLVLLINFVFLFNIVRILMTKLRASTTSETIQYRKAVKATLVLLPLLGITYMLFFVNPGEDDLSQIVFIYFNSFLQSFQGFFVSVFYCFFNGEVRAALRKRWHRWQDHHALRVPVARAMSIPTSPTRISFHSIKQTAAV
Assay: not given
The note with it: Ruhmann et al., P.N.A.S. 95, 15264-15269 (1998); cited from earlier work.
Consider [D-Phe^11, His^12]-sauvagine(11-40), for which the “antagonism for CRFR2 compared with the previously best reported compound” value is “close to equal antagonism”.

In the next test the test system is cultured rat pituitary cells. The experiment in a line: In vitro stimulation of ACTH and β-endorphin secretion by cultured rat pituitary cells. Format: cell-based.
Details: not given
In the case of “(cyclo 31-34)[Ac-Pro^4, D-Phe^12, Nle^21,38, CML^27, Glu^31, Lys^34]-r/hCRF(4-41) [Example 5 C]”, the “stimulation of the secretion of ACTH and β-END-LI” value (“stimulation” for short) is listed as “stimulates”.

With “(cyclo 31-34)[Ac-Pro^4, D-Phe^12, Nle^21,38, Glu^31, Aib^33, Lys^34]-r/hCRF(4-41) [Example 4]”, the “stimulation” value was “strongly stimulates”.

Take “(cyclo 31-34)[Ac-Pro^4, D-Phe^12, Nle^21,38, Glu^31, Lys^34, CML^37]-r/hCRF(4-41) [Example 5 D]”: the “stimulation” value is “stimulates”.

In the case of “(cyclo 31-34)[Ac-Pro^4, D-Phe^12, Nle^21,38, Glu^31, Lys^34]-oCRF(4-41) [Example 2]”, the “stimulation” value was “strongly stimulates”.

For the substance “(cyclo 31-34)[Ac-Pro^4, D-Phe^12, Nle^21,38, Glu^31, Lys^34]-porcine CRF(4-41) [Example 3 C]”, the “stimulation” value was “stimulates”.

Another test concerns the target T1, human CRFR2 (Homo sapiens, UniProt Q13324).
T1 construct: expressed in transfected cells
T1 sequence (Q13324 1-411): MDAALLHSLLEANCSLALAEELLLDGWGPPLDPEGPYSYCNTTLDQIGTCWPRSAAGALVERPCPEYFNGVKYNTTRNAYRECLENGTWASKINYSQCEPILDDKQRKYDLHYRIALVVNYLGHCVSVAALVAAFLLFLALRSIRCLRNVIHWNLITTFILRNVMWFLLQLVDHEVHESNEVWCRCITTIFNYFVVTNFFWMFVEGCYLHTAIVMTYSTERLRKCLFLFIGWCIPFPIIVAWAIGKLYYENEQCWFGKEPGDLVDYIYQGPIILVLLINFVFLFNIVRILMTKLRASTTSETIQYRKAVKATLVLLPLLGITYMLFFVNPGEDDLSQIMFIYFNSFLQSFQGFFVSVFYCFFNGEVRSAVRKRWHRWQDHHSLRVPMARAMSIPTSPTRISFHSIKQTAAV
The test can be described thus: Competitive binding assay, CHO cells stably expressing human CRFR2, displacement of [125I-Tyr0]Ucn.
Details: not given
For orientation: Loss of bound radioactivity is the signal in a displacement assay; it reports binding, not function.
As to “(cyclo 31-34)[Ac-Pro^4, D-Phe^12, Nle^21,38, CML^27, Glu^31, Lys^34]-r/hCRF(4-41) [Example 5 C]”, the “binding to CRFR2 (in words)” value is “only very weakly”.

With “(cyclo 31-34)[Ac-Pro^4, D-Phe^12, Nle^21,38, Glu^31, Aib^33, Lys^34]-r/hCRF(4-41) [Example 4]”, the “binding to CRFR2 (in words)” value is “only very weaker”.

“(cyclo 31-34)[Ac-Pro^4, D-Phe^12, Nle^21,38, Glu^31, Lys^34, CML^37]-r/hCRF(4-41) [Example 5 D]”: the “binding to CRFR2 (in words)” value is reported as “only very weakly”.

“(cyclo 31-34)[Ac-Pro^4, D-Phe^12, Nle^21,38, Glu^31, Lys^34]-oCRF(4-41) [Example 2]”: the “binding to CRFR2 (in words)” value is listed as “poorly”.

Consider “(cyclo 31-34)[Ac-Pro^4, D-Phe^12, Nle^21,38, Glu^31, Lys^34]-porcine CRF(4-41) [Example 3 C]”, for which the “binding to CRFR2 (in words)” value is recorded as “only very weakly”.

The target in a further test is T2, human CRFR1 (Homo sapiens, UniProt P34998).
T2 construct: expressed in transfected cells
T2 sequence (P34998 24-415): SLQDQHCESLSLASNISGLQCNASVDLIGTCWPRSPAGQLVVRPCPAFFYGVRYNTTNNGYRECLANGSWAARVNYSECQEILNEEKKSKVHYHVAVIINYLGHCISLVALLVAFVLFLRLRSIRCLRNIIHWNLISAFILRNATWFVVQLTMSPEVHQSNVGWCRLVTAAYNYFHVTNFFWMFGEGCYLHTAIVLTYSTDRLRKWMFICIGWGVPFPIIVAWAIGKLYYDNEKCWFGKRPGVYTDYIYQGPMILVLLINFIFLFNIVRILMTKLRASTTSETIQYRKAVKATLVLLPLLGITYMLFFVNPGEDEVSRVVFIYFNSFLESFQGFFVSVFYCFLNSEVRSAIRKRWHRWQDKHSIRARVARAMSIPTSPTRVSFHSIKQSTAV
The experiment in a line: Competitive binding assay, CHO cells stably expressing human CRFR1, displacement of 125I-(Nle21,Tyr32) ovine CRF.
Details: not given
With “(cyclo 31-34)[Ac-Pro^4, D-Phe^12, Nle^21,38, CML^27, Glu^31, Lys^34]-r/hCRF(4-41) [Example 5 C]”, the “binding to CRFR1 (in words)” value is “binds strongly”.

As for “(cyclo 31-34)[Ac-Pro^4, D-Phe^12, Nle^21,38, Glu^31, Aib^33, Lys^34]-r/hCRF(4-41) [Example 4]”, the “binding to CRFR1 (in words)” value is “bind strongly”.

In the case of “(cyclo 31-34)[Ac-Pro^4, D-Phe^12, Nle^21,38, Glu^31, Lys^34, CML^37]-r/hCRF(4-41) [Example 5 D]”, the “binding to CRFR1 (in words)” value was “binds strongly”.

In the case of “(cyclo 31-34)[Ac-Pro^4, D-Phe^12, Nle^21,38, Glu^31, Lys^34]-oCRF(4-41) [Example 2]”, the “binding to CRFR1 (in words)” value is listed as “bind strongly”.

Regarding “(cyclo 31-34)[Ac-Pro^4, D-Phe^12, Nle^21,38, Glu^31, Lys^34]-porcine CRF(4-41) [Example 3 C]”, the “binding to CRFR1 (in words)” value is on record as “binds strongly”.
